Where a SMILES comes first, the peptide text is derived from it.
Target: T1, β-catenin (Homo sapiens, UniProt P35222)
T1 sequence (P35222 1-781): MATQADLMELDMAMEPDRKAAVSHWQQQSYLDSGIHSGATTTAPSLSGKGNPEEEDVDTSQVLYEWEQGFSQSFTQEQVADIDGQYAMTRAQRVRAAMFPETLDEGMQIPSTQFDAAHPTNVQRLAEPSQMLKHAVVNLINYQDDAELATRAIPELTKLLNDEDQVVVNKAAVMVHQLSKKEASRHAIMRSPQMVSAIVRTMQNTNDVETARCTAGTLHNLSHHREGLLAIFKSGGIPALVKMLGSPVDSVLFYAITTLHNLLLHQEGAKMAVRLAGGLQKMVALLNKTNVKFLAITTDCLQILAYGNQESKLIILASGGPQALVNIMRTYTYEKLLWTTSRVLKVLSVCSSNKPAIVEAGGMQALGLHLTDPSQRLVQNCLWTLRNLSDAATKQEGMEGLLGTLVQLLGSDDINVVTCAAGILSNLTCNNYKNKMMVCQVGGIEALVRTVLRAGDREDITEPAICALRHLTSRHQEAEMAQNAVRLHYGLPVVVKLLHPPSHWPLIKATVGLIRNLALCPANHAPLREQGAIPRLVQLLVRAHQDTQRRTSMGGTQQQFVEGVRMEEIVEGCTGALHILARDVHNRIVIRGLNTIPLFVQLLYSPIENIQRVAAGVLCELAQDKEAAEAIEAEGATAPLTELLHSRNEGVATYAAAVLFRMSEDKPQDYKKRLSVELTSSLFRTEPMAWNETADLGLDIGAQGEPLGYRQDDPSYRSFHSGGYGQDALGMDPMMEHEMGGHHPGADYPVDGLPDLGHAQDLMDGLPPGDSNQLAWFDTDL
Assay: KD50 measurement using competitive fluorescence polarization (FP) with labelled TCF4
Type: binding
Conditions: fluorescence polarization, β-catenin; for Kd: read-out: β-Cat FP KD
Summary of the method: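 5 nM labelled TCF4 was combined with 100 nM β-catenin at room temperature, then inhibitor was titrated in serial dilutions from 10 nM to 30 uM. Polarization was read at excitation 470 nm, emission 520 nm; displacement lowers the signal. Three independent experiments.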

Compound | β-Cat FP Hill slope | Kd [nM]
CC[C@H](C)[C@@H]1NC(=O)[C@@H](NC(=O)[C@H](CCC(N)=O)NC(=O)[C@@H]2CCCN2C(=O)[C@H](Cc2c[nH]c3ccccc23)NC(=O)[C@H](CCCNC(=N)N)NC(=O)[C@H](CCCNC(=N)N)NC(C)=O)CCCCNC(=O)CC[C@@H](C(=O)N[C@@H](Cc2c[nH]cn2)C(=O)N[C@H](C(=O)N[C@@H](CCCNC(=N)N)C(=O)N[C@@H](CCCNC(=N)N)C(=O)N[C@H](C(=O)N[C@@H](Cc2c[nH]c3ccccc23)C(=O)N[C@@H](CCCNC(=N)N)C(N)=O)C(C)C)C(C)C)NC(=O)[C@H](CC(=O)O)NC(=O)[C@H](CC(C)C)NC1=O [compound 429] (HELM PEPTIDE1{[ac].R.R.W.P.Q.K.I.L.D.E.H.V.R.R.V.W.R.[am]}$PEPTIDE1,PEPTIDE1,7:R3-11:R3$$$V2.0) | 0.7 | 400 to 1000
CC[C@H](C)[C@@H]1NC(=O)[C@@H](NC(=O)[C@H](CCC(N)=O)NC(=O)[C@H](C)N(C)C(C)=O)CCCCNC(=O)CC[C@@H](C(=O)N[C@@H](Cc2c[nH]cn2)C(=O)N[C@H](C(=O)N[C@@H](CCC(N)=O)C(=O)N[C@@H](CCCNC(=N)N)C(=O)N[C@H](C(=O)N[C@@H](Cc2c[nH]c3ccccc23)C(=O)NCC(N)=O)C(C)C)C2CCCCC2)NC(=O)[C@H](CC(N)=O)NC(=O)[C@H](CC(C)C)NC1=O [compound 433] (HELM PEPTIDE1{[ac].[meA].Q.K.I.L.N.E.H.[O=C([C@@H](N[*:1])C1CCCCC1)[*:2]].Q.R.V.W.G.[am]}$PEPTIDE1,PEPTIDE1,4:R3-8:R3$$$V2.0) | 0.7 | 400 to 1000
CCCCCCCCCCCC(=O)N(C)[C@@H](C)C(=O)N[C@@H](CCC(N)=O)C(=O)N[C@H]1CCCCNC(=O)CC[C@@H](C(=O)N[C@@H](Cc2c[nH]cn2)C(=O)N[C@H](C(=O)N[C@@H](CCC(N)=O)C(=O)N[C@@H](CCCNC(=N)N)C(=O)N[C@H](C(=O)N[C@@H](Cc2c[nH]c3ccccc23)C(=O)NCC(N)=O)C(C)C)C2CCCCC2)NC(=O)[C@H](CC(N)=O)NC(=O)[C@H](CC(C)C)NC(=O)[C@H]([C@@H](C)CC)NC1=O [compound 434] (HELM PEPTIDE1{[CCCCCCCCCCCC(=O)[*:2]].[meA].Q.K.I.L.N.E.H.[O=C([C@@H](N[*:1])C1CCCCC1)[*:2]].Q.R.V.W.G.[am]}$PEPTIDE1,PEPTIDE1,4:R3-8:R3$$$V2.0) | – | < 400

Next, values leading:

β-Cat FP Hill slope | Kd [nM] | Compound
– | < 400 | CCCCCCCCC(=O)N[C@@H](Cc1c[nH]c2ccccc12)C(=O)N(C)[C@@H](C)C(=O)N[C@@H](CCC(N)=O)C(=O)N[C@H]1CCCCNC(=O)C[C@@H](C(=O)N[C@@H](Cc2c[nH]cn2)C(=O)N[C@H](C(=O)N[C@@H](CCC(N)=O)C(=O)N[C@@H](CCCNC(=N)N)C(=O)N[C@H](C(=O)N[C@@H](Cc2c[nH]c3ccccc23)C(=O)NCC(N)=O)C(C)C)C2CCCCC2)NC(=O)[C@H](CC(=O)O)NC(=O)[C@H](CC(C)C)NC(=O)[C@H]([C@@H](C)CC)NC1=O [compound 431] (HELM PEPTIDE1{[CCCCCCCCC(=O)[*:2]].W.[meA].Q.K.I.L.D.D.H.[O=C([C@@H](N[*:1])C1CCCCC1)[*:2]].Q.R.V.W.G.[am]}$PEPTIDE1,PEPTIDE1,5:R3-9:R3$$$V2.0)
– | > 30000 | CCCCCCCCCCCC(=O)N[C@@H](Cc1c[nH]c2ccccc12)C(=O)N(C)[C@@H](C)C(=O)N[C@@H](CCC(N)=O)C(=O)N[C@H]1CCCCNC(=O)CC[C@@H](C(=O)N[C@@H](Cc2c[nH]cn2)C(=O)N[C@H](C(=O)N[C@@H](CCC(N)=O)C(=O)N[C@@H](CCCNC(=N)N)C(=O)N[C@H](C(=O)N[C@@H](Cc2c[nH]c3ccccc23)C(=O)NCC(N)=O)C(C)C)C2CCCCC2)NC(=O)[C@H](CC(N)=O)NC(=O)[C@H](CC(C)C)NC(=O)[C@H]([C@@H](C)CC)NC1=O [compound 436] (HELM PEPTIDE1{[CCCCCCCCCCCC(=O)[*:2]].W.[meA].Q.K.I.L.N.E.H.[O=C([C@@H](N[*:1])C1CCCCC1)[*:2]].Q.R.V.W.G.[am]}$PEPTIDE1,PEPTIDE1,5:R3-9:R3$$$V2.0)

From patent US12441768B2, “Compositions and methods for treating endometriosis” (EndoMet Biosciences, Inc., priority 2018, dated 2025)
